Results on six compounds are retold here after patent publication US7008953B2, “3, 5 Disubstituted indazole compounds, pharmaceutical compositions, and methods for mediating or inhibiting cell proliferation” (Agouron Pharmaceuticals, Inc., priority 2003, dated 2006).

For one assay, the target named is lymphocyte kinase (LCK) (Homo sapiens, UniProt P06239). Briefly: Panel of protein kinases: LCK. The settings on record: method of Davies et al. It is filed as biochemical. On the procedure: (§1) The compounds of the present invention were screened against a large panel of protein kinase to determine inhibition activity for CDK as against a variety of protein kinases. The assay was conducted using methods and materials described by Davies, S et al. Specificity and Mechanism of Action of Some Commonly Used Protein Kinase Inhibitors, Biochem J. 351, 95–105 (2000), the contents of which are herein incorporated by reference. The compounds were screened against a panel of protein kinases which include AMP-activiated protein kinase (AMPK), checkpoint kinase (CHK1), casein kinases 1 and 2 (CK1 and CK2), cytoplasmic tyrosine kinase (CSK), dual serine/threonine/tyrosine kinase (DYRK1A), glycogen synthase kinase 3 (GSK3B), c-Jun N-terminal kinase (JNK), lymphocyte kinase (LCK), mitogen-activated protein kinases 2, K-1a, K2 (MAPK2, MAPKAP-K1a, and MAPKAP-K2), MAPK kinase (MKK1, also called MEK), mitogen and stress-activated protein kinase 1 (MSK1), never-in-mitosis kinase 6 (NEK6), p70 ribosomal protein S6 kinase (P70s6K1), 3-phosphoinositide-dependent protein kinase 1 (PDK1), phosphorylase kinase (PHK), protein kinase A (PKA), protein kinase B (PKB, also called Akt), protein kinase C (PKCa), p38-regulated/activated kinase (PRAK), Rho-dependent protein kinase (ROCK-II), stress-activated protein kinase 2a, 2b, 3 and 4 (SAPK-2A or p38, SAPK-2b or p38β2, SAPK3 or p38γ, SAPK4 or p38δ, respectively), and serum- and glucocorticoid-induced kinase (SGK). Compound activity was grouped into categories of weak (<50%), moderate (50–75%) and strong inhibition (>75%).

A further assay concerns the target T1, checkpoint kinase (CHK1) (Homo sapiens, UniProt O14757).
T1 sequence (O14757 1-476): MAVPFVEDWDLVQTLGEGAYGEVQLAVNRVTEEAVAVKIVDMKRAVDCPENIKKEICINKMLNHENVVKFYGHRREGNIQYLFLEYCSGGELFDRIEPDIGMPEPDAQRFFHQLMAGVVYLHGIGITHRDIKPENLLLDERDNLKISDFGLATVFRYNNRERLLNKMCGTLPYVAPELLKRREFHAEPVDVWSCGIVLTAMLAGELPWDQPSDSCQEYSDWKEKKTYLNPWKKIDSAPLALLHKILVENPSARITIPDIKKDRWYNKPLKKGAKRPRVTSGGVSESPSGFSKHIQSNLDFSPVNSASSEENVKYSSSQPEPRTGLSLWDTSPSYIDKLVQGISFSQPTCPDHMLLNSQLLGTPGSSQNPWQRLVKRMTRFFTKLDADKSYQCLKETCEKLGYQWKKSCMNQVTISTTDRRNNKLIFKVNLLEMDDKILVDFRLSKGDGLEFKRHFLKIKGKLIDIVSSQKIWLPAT
Briefly: Panel of protein kinases: CHK1. It is filed as biochemical. The settings on record: method of Davies et al. On the procedure:
as §1

Assay [1] has as its target mitogen-activated protein kinase 2 (MAPK2) (Homo sapiens, UniProt P28482). As to the kind of experiment: Panel of protein kinases: MAPK2. It is filed as biochemical. The conditions noted are these: method of Davies et al. On the procedure:
as §1

The target of assay [2] is T2, 3-phosphoinositide-dependent protein kinase 1 (PDK1) (Homo sapiens, UniProt O15530).
T2 sequence (O15530 1-556): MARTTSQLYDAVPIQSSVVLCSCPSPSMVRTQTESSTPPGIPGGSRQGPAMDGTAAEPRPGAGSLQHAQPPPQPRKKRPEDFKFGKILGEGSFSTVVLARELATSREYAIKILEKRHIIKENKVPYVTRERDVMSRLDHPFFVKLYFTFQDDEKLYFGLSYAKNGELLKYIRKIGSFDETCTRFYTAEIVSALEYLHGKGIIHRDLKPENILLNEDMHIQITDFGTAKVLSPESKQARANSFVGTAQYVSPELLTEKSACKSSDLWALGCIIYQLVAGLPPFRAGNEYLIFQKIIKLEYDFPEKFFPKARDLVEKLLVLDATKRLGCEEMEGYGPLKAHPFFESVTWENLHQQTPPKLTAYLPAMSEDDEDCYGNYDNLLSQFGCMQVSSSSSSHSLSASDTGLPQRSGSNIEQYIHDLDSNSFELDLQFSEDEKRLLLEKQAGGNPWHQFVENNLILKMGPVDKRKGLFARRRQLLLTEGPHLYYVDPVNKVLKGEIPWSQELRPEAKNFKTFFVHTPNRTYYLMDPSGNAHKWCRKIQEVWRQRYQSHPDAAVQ
As to the kind of experiment: Panel of protein kinases: PDK1. It is filed as biochemical. The conditions noted are these: method of Davies et al. On the procedure:
as §1

Assay [3] deals with glycogen synthase kinase 3 (GSK3B) (Homo sapiens, UniProt P49841). Briefly: Panel of protein kinases: GSK3B. The conditions noted are these: method of Davies et al. It is filed as biochemical. On the procedure: as §1
For assay [4], the target named is protein kinase B (PKB, also called Akt) (Homo sapiens, UniProt P31749). As to the kind of experiment: Panel of protein kinases: PKB. It is filed as biochemical. The conditions noted are these: method of Davies et al. On the procedure:
as §1

The test system of another assay is HCT 116 cell line. As to the kind of experiment: Inhibition of cell growth, MTT tetrazolium salt assay. It is filed as cell-based. The conditions noted are these: Homo sapiens, 50% inhibition of growth. On the procedure: Inhibition of cell growth was measured using the tetrazolium salt assay, which is based on the ability of viable cells to reduce 3-(4,5-dimethylthiazol-2-yl)-2,5-[2H]-diphenyltetrazolium bromide (MTT) to formazan (Mossman, Journal of Immunological Methods, vol. 65 (1983), pp. 55–58). The water-insoluble purple formazan product was then detected spectrophotometrically. The HCT 116 cell line was grown in 96-well plates. Cells were plated in the appropriate medium at a volume of 135 μl/well in McCoy's 5A Medium. Plates were incubated for four hours before addition of inhibitor compounds. Different concentrations of inhibitor compounds were added in 0.5% (v/v) dimethylsulfoxide (15 μL/well), and cells were incubated at 37° C. (5% CO2) for four to six days (depending on cell type). At the end of the incubation, MTT was added to a final concentration of 0.2 mg/mL, and cells were incubated for 4 hours more at 37° C. After centrifugation of the plates and removal of medium, the absorbance of the formazan (solubilized in dimethylsulfoxide) was measured at 540 nm. The concentration of inhibitor compound causing 50% inhibition of growth was determined from the linear portion of a semi-log plot of inhibitor concentration versus percentage inhibition. All results were compared to control cells treated only with 0.5% (v/v) dimethylsulfoxide.

For assay [5], the target named is mitogen and stress-activated protein kinase 1 (MSK1) (Homo sapiens, UniProt O75582). As to the kind of experiment: Panel of protein kinases: MSK1. The settings on record: method of Davies et al. It is filed as biochemical. On the procedure:
as §1

The next assay deals with CDK2/A (Homo sapiens, UniProt P24941). Briefly: Panel of protein kinases: CDK2/A. It is filed as biochemical. The conditions noted are these: method of Davies et al. On the procedure:
as §1

Another assay concerns the target protein kinase A (PKA) (Bos taurus, UniProt P00517). Briefly: Panel of protein kinases: PKA. It is filed as biochemical. The settings on record: method of Davies et al. On the procedure: as §1

glycogen synthase kinase 3 (GSK3B), sequence (P49841 whole entry, species assumed): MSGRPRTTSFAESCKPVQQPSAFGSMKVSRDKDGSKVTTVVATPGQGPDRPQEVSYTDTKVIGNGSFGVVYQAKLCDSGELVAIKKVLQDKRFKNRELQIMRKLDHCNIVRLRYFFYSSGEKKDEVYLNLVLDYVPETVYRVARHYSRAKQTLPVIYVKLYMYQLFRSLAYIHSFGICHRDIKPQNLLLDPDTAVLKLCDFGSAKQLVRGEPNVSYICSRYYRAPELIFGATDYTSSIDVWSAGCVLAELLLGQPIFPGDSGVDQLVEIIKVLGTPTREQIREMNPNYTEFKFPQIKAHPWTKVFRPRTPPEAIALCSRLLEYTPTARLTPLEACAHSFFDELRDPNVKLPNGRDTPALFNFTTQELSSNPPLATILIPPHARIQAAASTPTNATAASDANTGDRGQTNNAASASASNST
protein kinase B (PKB, also called Akt), sequence (P31749 118-480 limits assumed, species assumed): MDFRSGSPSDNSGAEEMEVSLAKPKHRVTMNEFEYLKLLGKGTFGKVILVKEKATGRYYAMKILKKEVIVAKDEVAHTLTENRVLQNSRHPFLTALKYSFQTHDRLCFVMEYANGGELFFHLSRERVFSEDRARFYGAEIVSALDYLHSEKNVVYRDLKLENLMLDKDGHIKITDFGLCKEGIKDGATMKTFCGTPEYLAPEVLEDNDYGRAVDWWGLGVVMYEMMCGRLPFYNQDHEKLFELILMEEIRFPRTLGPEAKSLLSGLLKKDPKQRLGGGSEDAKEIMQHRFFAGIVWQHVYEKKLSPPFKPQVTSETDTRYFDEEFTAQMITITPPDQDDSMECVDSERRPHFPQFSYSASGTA
lymphocyte kinase (LCK), sequence (P06239 whole entry, species assumed): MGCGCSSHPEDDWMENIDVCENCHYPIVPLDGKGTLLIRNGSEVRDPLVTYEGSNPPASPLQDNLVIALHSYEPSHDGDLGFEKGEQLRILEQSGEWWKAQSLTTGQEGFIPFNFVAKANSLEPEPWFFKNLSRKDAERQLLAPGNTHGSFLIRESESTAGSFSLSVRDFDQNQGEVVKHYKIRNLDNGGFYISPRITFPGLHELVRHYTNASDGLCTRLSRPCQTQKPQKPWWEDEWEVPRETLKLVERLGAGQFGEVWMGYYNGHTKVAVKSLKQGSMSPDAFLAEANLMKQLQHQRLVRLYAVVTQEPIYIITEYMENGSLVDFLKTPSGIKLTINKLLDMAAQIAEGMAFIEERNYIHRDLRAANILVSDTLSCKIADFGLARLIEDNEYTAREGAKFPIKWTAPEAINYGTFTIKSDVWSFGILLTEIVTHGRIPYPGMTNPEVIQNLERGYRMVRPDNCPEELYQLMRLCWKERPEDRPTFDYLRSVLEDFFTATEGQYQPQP
mitogen and stress-activated protein kinase 1 (MSK1), sequence (O75582 whole entry, species assumed): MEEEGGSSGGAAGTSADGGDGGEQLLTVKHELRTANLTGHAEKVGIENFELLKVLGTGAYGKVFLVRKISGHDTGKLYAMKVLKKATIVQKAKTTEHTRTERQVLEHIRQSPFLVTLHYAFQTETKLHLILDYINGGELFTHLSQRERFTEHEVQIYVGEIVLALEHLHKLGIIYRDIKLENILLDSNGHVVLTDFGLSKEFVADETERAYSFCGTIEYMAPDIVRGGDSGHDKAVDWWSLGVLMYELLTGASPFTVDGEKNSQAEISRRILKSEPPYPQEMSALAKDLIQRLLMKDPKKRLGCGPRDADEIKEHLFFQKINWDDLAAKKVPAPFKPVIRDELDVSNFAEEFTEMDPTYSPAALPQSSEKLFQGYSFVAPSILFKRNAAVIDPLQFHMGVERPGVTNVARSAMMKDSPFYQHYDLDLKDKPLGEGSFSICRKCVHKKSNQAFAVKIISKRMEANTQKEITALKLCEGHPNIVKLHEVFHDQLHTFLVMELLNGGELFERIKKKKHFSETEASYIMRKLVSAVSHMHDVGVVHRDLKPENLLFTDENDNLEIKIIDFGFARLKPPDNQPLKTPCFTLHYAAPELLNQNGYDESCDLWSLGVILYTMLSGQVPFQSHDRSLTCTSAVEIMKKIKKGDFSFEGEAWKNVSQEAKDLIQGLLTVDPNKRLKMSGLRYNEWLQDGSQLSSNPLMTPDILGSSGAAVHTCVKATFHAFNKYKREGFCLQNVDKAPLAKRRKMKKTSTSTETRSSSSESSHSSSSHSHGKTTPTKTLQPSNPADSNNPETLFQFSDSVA
mitogen-activated protein kinase 2 (MAPK2), sequence (P28482 whole entry): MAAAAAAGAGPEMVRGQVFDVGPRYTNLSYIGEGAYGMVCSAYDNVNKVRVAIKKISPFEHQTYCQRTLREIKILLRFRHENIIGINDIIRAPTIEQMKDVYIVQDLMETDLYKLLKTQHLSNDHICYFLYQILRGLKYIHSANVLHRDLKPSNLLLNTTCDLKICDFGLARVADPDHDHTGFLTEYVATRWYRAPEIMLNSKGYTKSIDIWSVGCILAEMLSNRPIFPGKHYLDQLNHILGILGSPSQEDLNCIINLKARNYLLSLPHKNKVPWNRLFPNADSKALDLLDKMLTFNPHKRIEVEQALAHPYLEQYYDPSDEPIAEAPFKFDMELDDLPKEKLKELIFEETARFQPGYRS

As to `CCNCc1cncc(-c2ccc3[nH]nc(-c4nc5ccccc5[nH]4)c3c2)c1C` [A], the “Kinase LCK inhibition” value on lymphocyte kinase (LCK) is recorded as “++ (Strong inhibition >75%)”. At checkpoint kinase (CHK1), the “Kinase CHK1 inhibition” value is listed as “+ (Moderate inhibition 50–75%)”. Moreover, the “Kinase MAPK2 inhibition” value in assay [1] is recorded as “− (Weak inhibition <50%)”. For the same compound, the “Kinase PDK1 inhibition” value in [2] was “+ (Moderate inhibition 50–75%)”. In assay [3], the “Kinase GSK3B inhibition” value is recorded as “++ (Strong inhibition >75%)”. The “Kinase PKB inhibition” value in assay [4] is reported as “− (Weak inhibition <50%)”. For the same compound, the IC50 with HCT 116 cell line worked out at 70 nM. Also, the “Kinase MSK1 inhibition” value in assay [5] is given as “− (Weak inhibition <50%)”. In addition, the “Kinase CDK2/A inhibition” value at CDK2/A is reported as “++ (Strong inhibition >75%)”. In addition, at protein kinase A (PKA), the “Kinase PKA inhibition” value is given as “++ (Strong inhibition >75%)”.
In the case of `CCNCc1cncc(-c2ccc3[nH]nc(-c4nc5c(C(=O)NC)cccc5[nH]4)c3c2)c1C` [B], the “Kinase LCK inhibition” value at lymphocyte kinase (LCK) is “++ (Strong inhibition >75%)”. The “Kinase CHK1 inhibition” value at checkpoint kinase (CHK1) is reported as “+ (Moderate inhibition 50–75%)”. For the same compound, the “Kinase MAPK2 inhibition” value in [1] was “− (Weak inhibition <50%)”. The “Kinase PDK1 inhibition” value in assay [2] was “− (Weak inhibition <50%)”. The “Kinase GSK3B inhibition” value in assay [3] is given as “++ (Strong inhibition >75%)”. In addition, the “Kinase PKB inhibition” value in assay [4] is “− (Weak inhibition <50%)”. Besides, the IC50 in the assay with HCT 116 cell line stood at 90 nM. Also, the “Kinase MSK1 inhibition” value in assay [5] is reported as “− (Weak inhibition <50%)”. Besides, the “Kinase CDK2/A inhibition” value on CDK2/A is given as “++ (Strong inhibition >75%)”. For the same compound, the “Kinase PKA inhibition” value at protein kinase A (PKA) is recorded as “++ (Strong inhibition >75%)”.
Consider `CCNCc1cncc(-c2ccc3[nH]nc(-c4nc5c(SC)cccc5[nH]4)c3c2)c1C` [C], for which the “Kinase LCK inhibition” value on lymphocyte kinase (LCK) is listed as “+ (Moderate inhibition 50–75%)”. Besides, at checkpoint kinase (CHK1), the “Kinase CHK1 inhibition” value was “− (Weak inhibition <50%)”. The “Kinase MAPK2 inhibition” value in [1] is on record as “− (Weak inhibition <50%)”. For the same compound, the “Kinase PDK1 inhibition” value in assay [2] is “− (Weak inhibition <50%)”. The “Kinase GSK3B inhibition” value in [3] was “++ (Strong inhibition >75%)”. The “Kinase PKB inhibition” value in assay [4] was “− (Weak inhibition <50%)”. Further, the IC50 in the assay with HCT 116 cell line is 86 nM. For the same compound, in [5], the “Kinase MSK1 inhibition” value is listed as “− (Weak inhibition <50%)”. The “Kinase CDK2/A inhibition” value at CDK2/A is “++ (Strong inhibition >75%)”. Further, on protein kinase A (PKA), the “Kinase PKA inhibition” value is “+ (Moderate inhibition 50–75%)”.
In the case of `CCNCc1cncc(-c2ccc3[nH]nc(-c4nc5c(NC(C)=O)cccc5[nH]4)c3c2)c1C` [D], the “Kinase LCK inhibition” value at lymphocyte kinase (LCK) is reported as “− (Weak inhibition <50%)”. Moreover, at checkpoint kinase (CHK1), the “Kinase CHK1 inhibition” value is on record as “− (Weak inhibition <50%)”. Also, the “Kinase MAPK2 inhibition” value in assay [1] is given as “− (Weak inhibition <50%)”. Also, the “Kinase PDK1 inhibition” value in assay [2] is listed as “− (Weak inhibition <50%)”. For the same compound, the “Kinase GSK3B inhibition” value in assay [3] is given as “++ (Strong inhibition >75%)”. In assay [4], the “Kinase PKB inhibition” value was “− (Weak inhibition <50%)”. Besides, the IC50 in the assay on HCT 116 cell line is above 500 nM. Moreover, the “Kinase MSK1 inhibition” value in assay [5] is reported as “− (Weak inhibition <50%)”. Besides, the “Kinase CDK2/A inhibition” value on CDK2/A is listed as “++ (Strong inhibition >75%)”. Besides, on protein kinase A (PKA), the “Kinase PKA inhibition” value is “− (Weak inhibition <50%)”.
As to `CCNCc1cncc(-c2ccc3[nH]nc(-c4nc5c(F)cc(F)cc5[nH]4)c3c2)c1C` [Example 1, {5-[3-(4,6-Difluoro-1H-benzoimidazol-2-yl)-1H-indazol-5-yl]-4-methyl-pyridin-3-ylmethyl}-ethyl-amine], at lymphocyte kinase (LCK), the “Kinase LCK inhibition” value was “+ (Moderate inhibition 50–75%)”. Also, the “Kinase CHK1 inhibition” value at checkpoint kinase (CHK1) is given as “− (Weak inhibition <50%)”. Besides, in assay [1], the “Kinase MAPK2 inhibition” value is “− (Weak inhibition <50%)”. For the same compound, the “Kinase PDK1 inhibition” value in assay [2] is “− (Weak inhibition <50%)”. Besides, the “Kinase GSK3B inhibition” value in [3] is listed as “++ (Strong inhibition >75%)”. Moreover, in [4], the “Kinase PKB inhibition” value was “− (Weak inhibition <50%)”. Also, the IC50 with HCT 116 cell line was determined as 120 nM. In addition, the “Kinase MSK1 inhibition” value in assay [5] is given as “− (Weak inhibition <50%)”. Also, the “Kinase CDK2/A inhibition” value at CDK2/A is reported as “++ (Strong inhibition >75%)”. In addition, at protein kinase A (PKA), the “Kinase PKA inhibition” value is “− (Weak inhibition <50%)”.
In the case of `CCNCc1cncc(-c2ccc3[nH]nc(-c4nc5cc(F)ccc5[nH]4)c3c2)c1C` [Example 2, Ethyl-{5-[3-(5-fluoro-1H-benzoimidazol-2-yl)-1H-indazol-5-yl]-4-methyl-pyridin-3-ylmethyl}-amine], the “Kinase LCK inhibition” value on lymphocyte kinase (LCK) was “+ (Moderate inhibition 50–75%)”. The “Kinase CHK1 inhibition” value at checkpoint kinase (CHK1) was “− (Weak inhibition <50%)”. In addition, the “Kinase MAPK2 inhibition” value in [1] is given as “− (Weak inhibition <50%)”. Also, the “Kinase PDK1 inhibition” value in [2] is “− (Weak inhibition <50%)”. The “Kinase GSK3B inhibition” value in assay [3] is “++ (Strong inhibition >75%)”. In [4], the “Kinase PKB inhibition” value is listed as “− (Weak inhibition <50%)”. Moreover, in the assay with HCT 116 cell line, the IC50 is 22 nM. Moreover, the “Kinase MSK1 inhibition” value in assay [5] is “− (Weak inhibition <50%)”. For the same compound, the “Kinase CDK2/A inhibition” value on CDK2/A is “++ (Strong inhibition >75%)”. Also, on protein kinase A (PKA), the “Kinase PKA inhibition” value is on record as “− (Weak inhibition <50%)”.
